Test results: US10238631B2, “Sesquiterpene derivatives and their use in inflammation or cancer treatment” (Academia Sinica, priority 2014, dated 2019)

Test system: MCF-7 (ER+, Her2−) human breast cancer cells
Test: MTT cell viability assay, MCF-7 cells
Type: cell-based
Settings: MCF7, 24 h, read-out: IC50 on cell viability, MCF-7 (ER+, Her2−)
Method: (§1) Normal or cancer cells (2×10^3 to 1×10^4 cells/well) were seeded in 96-well plate for overnight and treated with different compounds for 24 h to 72 h. Cells growth were determined by MTT-based colorimetric assays according to. Viability of the test cells treated with vehicle (0.5% DMSO) only was defined as 100% viable. Survival of cells after treatment with DETDs was calculated using the following formula: viable cell number (%)=OD570 (treated cell culture)/OD570 (vehicle control)×100.
(§2) Sixty DETDs were derived from parental compound […] and tested for anti-breast cancer cell activity.

Compound	IC50
C=C1C(=O)OC2CC3=C[C@@H](C/C(C)=C/C(OC(=O)/C=C/c4ccco4)[C@H]12)OC3=O (some centres unmarked) [DETD-29]	4.1 µM
C=C1C(=O)OC2CC3=C[C@@H](C/C(C)=C/C(O)[C@H]12)OC3=O (some centres unmarked) [DETD-3]	> 7.5 µM
C=C1C(=O)OC2CC3=C[C@@H](C/C(C)=C/C(OC(=O)C4CCCCC4)[C@H]12)OC3=O (some centres unmarked) [DETD-38]	4.6 µM

Test system: A2058 (BRAF mutation)
Test: MTT cell viability assay, A2058 melanoma
Type: cell-based, human
Settings: Homo sapiens, A2058, 24 h
Method: as §1
(§3) Several genes are involved in melanoma development and pathology; specifically, mutation in V-raf murine sarcoma viral oncogene homolog B1 (B-RAF) occurs approximately 50-60% and in neuroblastoma RAS viral oncogene homolog (N-RAS) occurs about 30% of malignant melanomas. A spectrum of wild-type or mutated melanoma cell lines including B16-F10, MeWo, A375, A2058, HTB-68, and melanocyte were used to study anti-melanoma cell proliferation activity of parental phytocompound DET and newly synthesized DETDs.

Compound	IC50
C=C1C(=O)OC2CC3=C[C@@H](C/C(C)=C/C(OC(=O)/C=C/c4ccco4)[C@H]12)OC3=O (some centres unmarked) [DETD-29]	> 10 µM
C=C1C(=O)OC2CC3=C[C@@H](C/C(C)=C/C(O)[C@H]12)OC3=O (some centres unmarked) [DETD-3]	> 10 µM

Test system: B16-F10 (NRAS mutation)
Test: MTT cell viability assay, B16-F10 melanoma
Type: cell-based
Settings: Mus musculus, B16-F10, 24 h, 24 h, read-out: IC50 on cell viability, B16-F10 (NRAS mutation)
Method: as §1, §3

Compound	IC50
C=C1C(=O)OC2CC3=C[C@@H](C/C(C)=C/C(OC(=O)/C=C/c4ccco4)[C@H]12)OC3=O (some centres unmarked) [DETD-29]	6.7 µM
C=C1C(=O)OC2CC3=C[C@@H](C/C(C)=C/C(O)[C@H]12)OC3=O (some centres unmarked) [DETD-3]	> 10 µM
C=C1C(=O)OC2CC3=C[C@@H](C/C(C)=C/C(OC(=O)C4CCCCC4)[C@H]12)OC3=O (some centres unmarked) [DETD-38]	3.9 µM

Test system: M10 normal mammary epithelial cells
Test: MTT cell viability assay, M10 normal cells
Type: cell-based, human
Settings: Homo sapiens, Epithelial cell, 24 h
Method: as §1, §2

Compound	IC50
C=C1C(=O)OC2CC3=C[C@@H](C/C(C)=C/C(OC(=O)/C=C/c4ccco4)[C@H]12)OC3=O (some centres unmarked) [DETD-29]	> 7.5 µM
C=C1C(=O)OC2CC3=C[C@@H](C/C(C)=C/C(O)[C@H]12)OC3=O (some centres unmarked) [DETD-3]	> 7.5 µM
C=C1C(=O)OC2CC3=C[C@@H](C/C(C)=C/C(OC(=O)C4CCCCC4)[C@H]12)OC3=O (some centres unmarked) [DETD-38]	> 7.5 µM

Test system: MDA-MB-231 (ER−, PR−, Her2−) human breast cancer cells
Test: MTT cell viability assay, MDA-MB-231 cells
Type: cell-based
Settings: Homo sapiens, MDA-MB-231, 24 h, read-out: IC50 on cell viability, MDA-MB-231 (ER−, PR−, Her2−)
Method: as §1, §2

Compound	IC50
C=C1C(=O)OC2CC3=C[C@@H](C/C(C)=C/C(OC(=O)/C=C/c4ccco4)[C@H]12)OC3=O (some centres unmarked) [DETD-29]	4.9 µM
C=C1C(=O)OC2CC3=C[C@@H](C/C(C)=C/C(O)[C@H]12)OC3=O (some centres unmarked) [DETD-3]	> 7.5 µM
C=C1C(=O)OC2CC3=C[C@@H](C/C(C)=C/C(OC(=O)C4CCCCC4)[C@H]12)OC3=O (some centres unmarked) [DETD-38]	5.2 µM

Test system: A375 (BRAF mutation)
Test: MTT cell viability assay, A375 melanoma
Type: cell-based, human
Settings: Homo sapiens, A-375, 24 h, 24 h, MTT; read-out: IC50 on cell viability, A375 (BRAF mutation)
Method: as §1, §3
To investigate whether or not DETD-35 show synergism with PLX4032 against A375 melanoma cells, we performed anti-proliferation assay using MTT reagent to obtain IC50 of each compound. […] The synergistic effect was quantified by combination index (CI) analysis as stated above.

Compound	IC50
C=C1C(=O)OC2CC3=C[C@@H](C/C(C)=C/C(OC(=O)/C=C/c4ccco4)[C@H]12)OC3=O (some centres unmarked) [DETD-29]	> 10 µM
C=C1C(=O)OC2CC3=C[C@@H](C/C(C)=C/C(O)[C@H]12)OC3=O (some centres unmarked) [DETD-3]	> 10 µM
C=C1C(=O)OC2CC3=C[C@@H](C/C(C)=C/C(OC(=O)C4CCCCC4)[C@H]12)OC3=O (some centres unmarked) [DETD-38]	5.1 µM

Test system: HTB-68 (NRAS mutation)
Test: MTT cell viability assay, HTB-68 melanoma
Type: cell-based, human
Settings: Homo sapiens, 24 h
Method: as §1, §3

Compound	IC50
C=C1C(=O)OC2CC3=C[C@@H](C/C(C)=C/C(OC(=O)/C=C/c4ccco4)[C@H]12)OC3=O (some centres unmarked) [DETD-29]	> 10 µM
C=C1C(=O)OC2CC3=C[C@@H](C/C(C)=C/C(O)[C@H]12)OC3=O (some centres unmarked) [DETD-3]	> 10 µM
C=C1C(=O)OC2CC3=C[C@@H](C/C(C)=C/C(OC(=O)C4CCCCC4)[C@H]12)OC3=O (some centres unmarked) [DETD-38]	9.5 µM

Test system: LPS-induced nitric oxide (NO) production in RAW 264.7 cells
Test: Nitric oxide production in LPS-stimulated macrophages (Griess)
Type: cell-based, mouse
Settings: Mus musculus; LPS-stimulated RAW264.7, nitrite 24 h after LPS
Method: (§4) Marcophages (2×10^5 cells/well in 96-well plate) were treated with compounds for 1 h, then incubated further for 24 h with or without the presence of […] LPS in the cultural medium. Nitrite levels in cell culture medium were determined by the Griess reaction method. In parallel to the Griess assays, macrophage cell viabilities were determined using the MTT based colorimetric assay.
LPS from the outer membrane of Gram-negative bacteria can induce mRNA or protein levels of inducible nitric oxide synthase (iNOS), which catalyzes oxidative deamination of L-arginine to produce nitric oxide (NO). Once NO is predominantly produced, it interacts with superoxide anion and generates highly reactive oxidants resulting in cellular inflammation, DNA, protein and tissue damages, carcinogenesis, and antiapoptosis. We used in vitro LPS stimulated inflammation in RAW264.7 cell system to evaluate the effect of DET and its derivatives DETDs on NO production by determination of nitrite level (equivalent to NO level) in culture medium 24 h after LPS treatment.

Compound	IC50
C=C1C(=O)OC2CC3=C[C@@H](C/C(C)=C/C(OC(=O)/C=C/c4ccco4)[C@H]12)OC3=O (some centres unmarked) [DETD-29]	1.6 µM
C=C1C(=O)OC2CC3=C[C@@H](C/C(C)=C/C(O)[C@H]12)OC3=O (some centres unmarked) [DETD-3]	> 10 µM
C=C1C(=O)OC2CC3=C[C@@H](C/C(C)=C/C(OC(=O)C4CCCCC4)[C@H]12)OC3=O (some centres unmarked) [DETD-38]	1.7 µM

Test system: Melanocyte (Normal cells)
Test: MTT cell viability assay, normal melanocytes
Type: cell-based, human
Settings: Homo sapiens, Melanocyte, 24 h
Method: as §1, §3

Compound	IC50
C=C1C(=O)OC2CC3=C[C@@H](C/C(C)=C/C(OC(=O)/C=C/c4ccco4)[C@H]12)OC3=O (some centres unmarked) [DETD-29]	> 10 µM
C=C1C(=O)OC2CC3=C[C@@H](C/C(C)=C/C(O)[C@H]12)OC3=O (some centres unmarked) [DETD-3]	> 10 µM
C=C1C(=O)OC2CC3=C[C@@H](C/C(C)=C/C(OC(=O)C4CCCCC4)[C@H]12)OC3=O (some centres unmarked) [DETD-38]	> 10 µM

Test system: RAW264.7 (normal macrophage)
Test: MTT cell viability assay, RAW264.7 macrophages
Type: cell-based, mouse
Settings: Mus musculus, RAW264.7, 24 h
Method: as §1, §4

Compound	IC50
C=C1C(=O)OC2CC3=C[C@@H](C/C(C)=C/C(OC(=O)/C=C/c4ccco4)[C@H]12)OC3=O (some centres unmarked) [DETD-29]	> 10 µM
C=C1C(=O)OC2CC3=C[C@@H](C/C(C)=C/C(O)[C@H]12)OC3=O (some centres unmarked) [DETD-3]	> 10 µM
C=C1C(=O)OC2CC3=C[C@@H](C/C(C)=C/C(OC(=O)C4CCCCC4)[C@H]12)OC3=O (some centres unmarked) [DETD-38]	> 10 µM

Test system: MeWo (No NRAS or BRAF mutation)
Test: MTT cell viability assay, MeWo melanoma
Type: cell-based, human
Settings: Homo sapiens, MeWo, 24 h
Method: as §1, §3

Compound	IC50
C=C1C(=O)OC2CC3=C[C@@H](C/C(C)=C/C(OC(=O)/C=C/c4ccco4)[C@H]12)OC3=O (some centres unmarked) [DETD-29]	> 10 µM
C=C1C(=O)OC2CC3=C[C@@H](C/C(C)=C/C(O)[C@H]12)OC3=O (some centres unmarked) [DETD-3]	> 10 µM
C=C1C(=O)OC2CC3=C[C@@H](C/C(C)=C/C(OC(=O)C4CCCCC4)[C@H]12)OC3=O (some centres unmarked) [DETD-38]	> 10 µM

Test system: TS/A (ER+, Her2−) murine mammary cancer cells
Test: MTT cell viability assay, TS/A cells
Type: cell-based
Settings: Mus musculus, 24 h, read-out: IC50 on cell viability, TS/A (ER+, Her2−)
Method: as §1, §2

Compound	IC50
C=C1C(=O)OC2CC3=C[C@@H](C/C(C)=C/C(OC(=O)/C=C/c4ccco4)[C@H]12)OC3=O (some centres unmarked) [DETD-29]	2.2 µM
C=C1C(=O)OC2CC3=C[C@@H](C/C(C)=C/C(O)[C@H]12)OC3=O (some centres unmarked) [DETD-3]	7.5 µM
C=C1C(=O)OC2CC3=C[C@@H](C/C(C)=C/C(OC(=O)C4CCCCC4)[C@H]12)OC3=O (some centres unmarked) [DETD-38]	2.6 µM
